pIC50: −log10 of the molar value.
How the values were obtained:
[1] = test system: SMN2 CJ mRNA; experiment: Gene panel canonical junction qPCR assay, SMN2; format: cell-based; conditions: Homo sapiens, larger gene panel, read-out: SMN2 IC50 (decrease in CJ mRNA levels)
Outline: (§1)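 A673 or K562 cells treated 24 h with 11-point 3-fold dilutions (top 10 µM, ≤0.25% DMSO) at 37 °C. Canonical exon-junction mRNA measured by probe-based RT-qPCR, normalized to GAPDH, GUSB or PPIA and DMSO (2^−ΔΔCt), converted to percent response over a fixed ΔCt window; IC50 from 4-parameter fit.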

[2] = test system: HTT CJ mRNA; experiment: Gene panel canonical junction qPCR assay, HTT; format: cell-based; conditions: Homo sapiens, larger gene panel, read-out: HTT IC50 (decrease in CJ mRNA levels)
Outline: as §1

[3] = test system: HiBiT-tagged Target C protein in K562 cells; experiment: HiBiT protein abundance assay, Target C; format: cell-based, human; conditions: HiBiT-modified K562 cells, 24 hours, luminescence
Outline: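 K562 lines with the endogenous target HiBiT-tagged, seeded in IMDM+1% FBS, got a 10-point 3-fold dilution series (top final 10 μM, DMSO ≤0.25%) for 24 hours at 37° C. Lytic LgBiT luminescence was normalized against unmodified-K562 and DMSO-only controls, and IC50 was interpolated at 50% from a four-parameter logistic fit.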

Structure (SMILES) | pIC50 [1] | pIC50 [2] | pIC50 [3]
Cc1cn2cc(-c3nc4ncn(C5CCNCC5)c(=O)c4s3)cc(F)c2n1 [Compound 232, 2-(8-fluoro-2-methylimidazo[1,2-a]pyridin-6-yl)-6-(piperidin-4-yl)thiazolo[4,5-d]pyrimidin-7(6H)-one] | > 7.00 | > 7.00 | 6.00 to 7.00
Cn1cc2cc(-c3cc4ncn(C5CCNCC5)c(=O)c4s3)cc(F)c2n1 [Compound 257] | 5.00 to 6.00 | 5.00 to 6.00 | 5.00 to 6.00

From patent publication US20240366612A1, “COMPOUNDS AND METHODS FOR MODULATING NUCLEIC ACID SPLICING” (REMIX THERAPEUTICS INC., priority 2021, published 2024)
